Results: US12102607B2, “C5aR inhibitors for use in the treatment of chemotherapy-induced iatrogenic pain” (Dompe' Farmaceutici S.P.A., priority 2017, dated 2024)

Legend:
acetylated α-Tubulin = assay: In-cell western analysis of acetylated α-Tubulin in DRG neurons; assay type: cell-based, Sprague Dawley rat; conditions: for Acetylated α-Tubulin (% of UT): DRG neurons
Procedure: (§1) Dorsal Root Ganglion neurons were obtained by dissociation of post natal (P2) Sprague Dawley rat ganglia (Envigo, Bresso Italy), following well-defined protocols (O'Meara et al, 2011; Owen et al, 2012). To minimize introduction of contaminating cells into the culture, any excessively long roots were trimmed from DRGs. After the isolation, DRGs were enzymatically dissociated as follows: • 20 minutes of 1.5 mg/ml papain exposure at 37° C., • 30 minutes of 4 mg/ml collagenase exposure at 37° C.
(§2) Subsequently, cells were mechanically dissociated with a fire polished glass Pasteur pipette, in order to obtain a single cell suspension.
(§3) Once dissociation was achieved, cells were seeded onto 96 black multiwell plates coated with Laminin (10 ug/mL, overnight at Room Temperature, RT) at selected densities. Following 1 week of incubation in DMEM high glucose medium supplemented with 10% FBS, 1× N2, 1× B27, 100 IU/mI penicillin, […] streptomycin, cells were treated according to experimental needs.
Dorsal Root Ganglion neurons isolated as previously reported were subjected to the following experimental challenge scheme as depicted in FIG. 10.
Paclitaxel, C5a and drugs were administered 24 hr prior the in-cell western experiment. Following 24 hr of treatment with appropriate stimuli as previously indicated, cells were washed with 1×PBS and fixed with 3,7% formaldehyde for 15 min. After the removal of fixing solution, cells were washed with 1×PBS and permeabilized with 1×PBS-0,1% Triton X-100 for 5 min at RT. Cells were then stained over night at 4° C. with the anti-acetylated α-Tubulin antibody, diluted 1:500 in Odyssey Blocking buffer, following manufacturer's protocol.
The next day, cells were washed with 1×PBS-0.1% Tween20, and stained with the secondary antibody (diluted 1:800 in Odyssey Blocking buffer, as recommended by the protocol) and with the CellTag 700Stain […]. To lower the background, Tween20 at a final concentration of 0.2% was added to the Odyssey Blocking buffer. 96-well plates were then read at Odyssey CLx Imaging system and images acquired. Data analysis was carried out by the use of Image Studio 2.1 software.
Paclitaxel was given to the DRG neurons following 7 days of culture at the concentration of 200 nM (Scuteri et al. 2006).
Effect of DF3966Y in C5α-induced neuronal toxicity In order to determine whether the observed effects may be triggered also by C5a, recombinant mouse C5a 1 μg/ml (111.11 nM) was given to the DRG neurons after 7 days of culture in presence or absence of DF3966Y 1 μM.
After 24 hr of incubation, acetylated α-Tubulin was quantified using in-cell western technique, as previously described.

DRG neurons [1] = assay: Cells number of DRG neurons (immunofluorescence, image analysis); assay type: cell-based; conditions: for % of cell number: relative to UT
Procedure: as §1, §2, §3
(§4) Alpha Tubulin Acetylation DRG-derived neurons were cultured for 7 days and then treated with:
(§5) • paclitaxel (200 nM, 500 nM, 1 μM and 5 μM, 20 μM) in presence or absence of DF3966Y (0.1, 1 and 10 μM) or DF2593A (0.1, 1 and 10 μM) • or C5a (500 ng/ml and 1 μg/ml) in presence or absence of DF3966Y (1 μM)
(§6) After 24 hr of treatment, cells were stained by immunofluorescence.
(§7) Cells were fixed with saccharose-paraformaldehyde then staining was performed overnight. Primary antibodies (anti—Ill Tubulin and anti-synaptotagmin 1) were diluted 1:500 in 1×PBS-4% BSA-2% Normal goat serum and 0.3% Triton x-100. The next day, cells were washed with 1×PBS-4% BSA and secondary antibodies were used diluted 1:500 in 1×PBS-4% BSA-2% Normal goat serum and 0.3% Triton x-100. After 1 hr of incubation, cells were washed with 1×PBS. Hoechst was used as a counterstain.
(§8) Sixteen images per well were taken with ArrayScan XTI HCA Reader (Thermo Fisher Scientific) with and 40× objective. All the analysis were done with HCS Studio software
(§9) Cells number, synapse number and dentritic arborization were evaluated in untreated cells and in cells stimulated with paclitaxel and C5a alone or in presence of the drug. As marker of chemotherapy-induced toxicity, the total number of synapses on DRG neurons was quantitative evaluated as percentage of the number of synapse with respect to untreated (UT) control.
(§10) Data are obtained as the sum of the values obtained by the analysis of sixteen fields per well for each experiment. Percentage of the values in respect to the relative mean untreated group was calculated. Mean of the percentages from 4 separate experiments was plotted in the following Tables 2-7.

DRG neurons [2] = assay: Synapse number on DRG neurons (synaptotagmin staining, image analysis); assay type: cell-based, Sprague Dawley rat; conditions: for % of synapse number: relative to UT
Procedure: as §1, §2, §3, §4, §5, §6, §7, §8
For synapse count a threshold has been set, in particular all the objects, positive to synaptotagmin staining, in the range 0.365-2.457 μm^2 have been considered as synapses.
as §9, §10

DRG neurons [3] = assay: Dendritic tree area of DRG neurons (image analysis); assay type: cell-based, Sprague Dawley rat; conditions: for % dendritic tree area: relative to UT
Procedure: as §1, §2, §3, §4, §5, §6, §7, §8
Dendritic arborization directly influences synaptic genesis and input. A well-developed arborization indicates a functional synaptic network. For this reason, the area occupied by dendritic arborization has been quantified.
as §10

DRG neurons [4] = assay: Electrophysiological recordings (whole-cell patch-clamp, current-clamp) of DRG-derived neurons; assay type: cell-based, Sprague Dawley rat
Procedure: as §1
Dorsal Root Gangliar (DRG)-derived neurons were cultured for 7 days and then treated in blind with the following combinations: 10 nM Paclitaxel, 10 nM Paclitaxel+1 μM DF3966Y, 1 μg/ml C5a, 1 μg/ml C5a+1 μM DF3966Y.
The compounds were administered for 1 min 30 sec (short acute stimulation) or 5 minutes (long chronic stimulation). The application of the compounds was followed by a wash-out in the physiological control solution for an equivalent time (about 10 min).
Electrophysiological recordings were performed by the patch-clamp technique in the whole-cell configuration. The standard extracellr solution was bath applied and contained the following (mM): NaCl 135, KCl 2, CaCl2 2, MgCl2 2, hepes 10, glucose 5, pH 7.4. The standard pipet solution contained the following (mM): potassium aspartate 130, NaCl 10, MgCl2 2, CaCl2 1.3, EGTA 10, Hepes 10, pH 7.3. Recordings were acquired by the pClamp8.2 software and the MultiClamp 700A amplifier (Axon Instruments), in current-clamp mode.

## CC(=O)O[C@H]1C(=O)[C@@]2(C)[C@H]([C@H](OC(=O)c3ccccc3)[C@]3(O)C[C@H](OC(=O)[C@H](O)[C@@H](NC(=O)c4ccccc4)c4ccccc4)C(C)=C1C3(C)C)[C@]1(OC(C)=O)CO[C@@H]1C[C@@H]2O [Paclitaxel, reference compound]
Acetylated α-Tubulin; Paclitaxel 200 nM alone
  change in acetylated α-Tubulin with respect to control (UT) cells: marginal yet significant increase
Acetylated α-Tubulin; Paclitaxel 200 nM alone, 24 hr
  Acetylated α-Tubulin (% of UT): 111.41 % of UT
DRG neurons [1]; Paclitaxel alone
  effect on cell number: slight decrease in cell number
DRG neurons [1]; Paclitaxel alone (Table 2)
  % of cell number: 88.87 ± 6.04%
DRG neurons [2]; PAC alone (Table 4)
  % of synapse number: 88.02 ± 2.99%
DRG neurons [2]; Paclitaxel alone
  effect on synapse number: marked decrease in synapse number
DRG neurons [3]; PAC alone (Table 6)
  % dendritic tree area: 92.22 ± 3.47%
DRG neurons [3]; Paclitaxel alone
  area occupied by dendritic arborization: non-significant decrease
DRG neurons [4]; 10 nM Paclitaxel alone, immediate phase
  action potential firing rate vs CTRL, immediate: +54.64%
DRG neurons [4]; 10 nM Paclitaxel alone, longer times of exposure
  electrical activity vs CTRL, longer times of exposure: −83.51%

## C[C@H](c1ccc(Nc2nc(C(F)(F)F)cs2)cc1)c1nnn[nH]1 [DF3966Y, 1-N-[4-[(1R)-1-(1H-tetrazol-5-yl)ethyl]phenyl}-4-(trifluoromethyl)-11,3-thiazol-2-amine]
Acetylated α-Tubulin; DF3966Y 1 μM + C5a 1 μg/ml, 24 hr
  levels of acetylated α-Tubulin under C5a plus drug: significantly reduced the challenge induced by C5a exposure
Acetylated α-Tubulin; drug 0.1 μM under Paclitaxel 200 nM, 24 hr
  Acetylated α-Tubulin (% of UT): 76.45 % of UT
Acetylated α-Tubulin; drug 1 μM under Paclitaxel 200 nM, 24 hr
  Acetylated α-Tubulin (% of UT): 65.16 % of UT
Acetylated α-Tubulin; drug 10 μM under Paclitaxel 200 nM, 24 hr
  Acetylated α-Tubulin (% of UT): 89.05 % of UT
Acetylated α-Tubulin; drug 0.1, 1, 10 μM, Paclitaxel 200 nM
  reversal of Paclitaxel-induced increase in acetylated α-Tubulin: significantly reverted the Paclitaxel-induced challenge
DRG neurons [1]; DF3966Y 1 μM + C5a (Table 3)
  % of cell number: 96.65 ± 10.77%
DRG neurons [1]; DF3966Y 1 μM + PAC (Table 2)
  % of cell number: 98.83 ± 12.49%
DRG neurons [1]; DF3966Y 1 μM alone (Table 2)
  % of cell number: 101.55 ± 10.59%
DRG neurons [1]; DF3966Y 1 μM alone (Table 3)
  % of cell number: 96.96 ± 6.45%
DRG neurons [1]; DF3966Y administered alone or with PAC
  effect on cell number: did not exert any significant effect on cell number
DRG neurons [2]; DF3966Y 1 μM + C5a (Table 5)
  % of synapse number: 111.33 ± 9.27%
DRG neurons [2]; DF3966Y 1 μM + PAC (Table 4)
  % of synapse number: 92.04 ± 21.01%
DRG neurons [2]; DF3966Y 1 μM + paclitaxel
  effect on Paclitaxel-induced decrease in synapse number: significantly counteracted Paclitaxel-induced effect
DRG neurons [2]; DF3966Y 1 μM alone (Table 4)
  % of synapse number: 99.89 ± 12.94%
DRG neurons [2]; DF3966Y 1 μM alone (Table 5)
  % of synapse number: 99.89 ± 12.94%
DRG neurons [3]; DF3966Y 1 μM + C5a (Table 7)
  % dendritic tree area: 106.45 ± 9.43%
DRG neurons [3]; DF3966Y 1 μM + PAC (Table 6)
  % dendritic tree area: 101.21 ± 7.97%
DRG neurons [3]; DF3966Y 1 μM + paclitaxel
  effect on paclitaxel-induced decrease of dendritic arborization area: seems to counteract such a decrease
DRG neurons [3]; DF3966Y 1 μM alone (Table 6)
  % dendritic tree area: 103.07 ± 8.17%
DRG neurons [3]; DF3966Y 1 μM alone (Table 7)
  % dendritic tree area: 103.07 ± 8.17%
DRG neurons [4]; 10 nM Paclitaxel + 1 μM DF3966Y, first immediate phase and longer time of exposure
  alteration of electrical activity under Paclitaxel plus drug: no significant alteration of electrical activity
DRG neurons [4]; 1 μg/ml C5a + 1 μM DF3966Y, longer time of exposure (3-5 minutes)
  inhibition of electrical activity under C5a plus drug, longer time of exposure: about 35%
DRG neurons [4]; 1 μg/ml C5a + 1 μM DF3966Y, short time points
  alteration of electrical activity under C5a plus drug, short time points: no significant alteration of the electrical activity
